# In patent US11969425B2, “Inhibitor of indoleamine-2,3-dioxygenase (IDO)” (InventisBio LLC, priority 2016, dated 2024):
# Like-named read-outs stand apart in the source and are kept apart here.
# Key:
# [1] = Human hepatocyte clearance study; assay type: in vitro ADME; details: pooled cryopreserved human hepatocytes (suspension); for CLint scaled at 1 µM: human, scaled up from in vitro t1/2, scaling factor 2544.3, read-out: Human Scale-up Clint; for hepatocyte CLint at 1 µM / half-life at 1 µM: pooled human hepatocytes; for hepatocyte CLint at 1 µM: read-out: Human In vitro Clint (μL/min/10^6 cells); for half-life at 1 µM: read-out: Human In vitro T1/2
# Procedure: (§1) The in vitro human hepatocyte clearance of compounds described here was studied using pooled human hepatocytes purchased from BioreclamationIVT (Westbury, NY, Cat #X008001, Lot #TQJ). The assay was conducted according to manufacture's instruction. Briefly, 10 mM stock solutions of test compounds and positive control (Verapamil) were prepared in 100% DMSO. Thawing media (50 mL) used in the study consists of: 31 mLWilliams E medium (GIBCO Cat #12551-032); 15 mL isotonic percoll (GE Healthcare Cat #17-0891-09); 500 uL 100XGlutaMax (GIBCO Cat #35050); 750 uL HEPES (GIBCO Cat #15630-080); 2.5 mL FBS (Corning Cat #35-076*CVR); 50 uL human insulin (GIBCO Cat #12585-014) and 5 uL dexamethasone (NICPBP). Incubation media is made of Williams E medium supplemented with 1xGlutaMax. Both thawing medium and incubation medium (serum-free) were placed in a 37° C. water bath for at least 15 minutes prior to use. Compound stock solutions were diluted to 100 μM by combining 198 μL of 50% acetonitrile/50% water and 2 μL of 10 mM stock solution. Verapamil was use as positive control in the assay. Vials of cryopreserved hepatocytes were removed from storage and thawed in a 37° C. water bath with gentle shaking. Contents of the vial were poured into the 50 mL thawing medium conical tube. Vials were centrifuged at 100 g for 10 minutes at room temperature. Thawing medium was aspirated and hepatocytes were re-suspended with serum-free incubation medium to yield ˜1.5×10^6 cells/mL. Hepatocyte viability and density were counted using a Trypan Blue exclusion, and then cells were diluted with serum-free incubation medium to a working cell density of 0.5×10^6 viable cells/mL. Then, a portion of the hepatocytes at 0.5×10^6 viable cells/mL was boiled for 5 minutes prior to adding to the plate as negative control to eliminate the enzymatic activity so that little or no substrate turnover should be observed. The boiled hepatocytes were used to prepare negative samples. Aliquots of 198 μL hepatocytes were dispensed into each well of a 96-well non-coated plate. The plate was placed in the incubator on an orbital shaker at 500 rpm for approximately 10 minutes. Aliquots of 2 μL of the 100 μM test compound or positive control were added into respective wells of the non-coated 96-well plate to start the reaction. This assay was performed in duplicate. The plate was incubated in the incubator on an orbital shaker at 500 rpm for the designated time points. Twenty-five microliter of contents were transferred and mixed with 6 volumes (150 μL) of cold acetonitrile with IS (200 nM imipramine, 200 nM labetalol and 200 nM diclofenac) to terminate the reaction at time points of 0, 15, 30, 60, 90 and 120 minutes. Samples were centrifuged at 3,220 g for 25 minutes and aliquots of 150 μL of the supernatants were used for LC-MS/MS analysis. For data analysis, all calculations were carried out using Microsoft Excel. Peak areas were determined from extracted ion chromatograms. The in vitro half-life (t1/2) of parent compound was determined by regression analysis of the percent parent disappearance vs. time curve. The in vitro half-life (in vitro t1/2) was determined from the slope value: in vitro t1/2=0.693/k. […] Scaling factors for in vivo intrinsic clearance prediction using human hepatocytes are listed as: liver weight (g liver/kg body weight): 25.7; hepatocyte concentration (10^6 cells/g liver): 99; scaling factor: 2544.3.
# pooled human hepatocytes = experiment: Human hepatocyte clearance study; assay type: in vitro ADME
# Procedure: as §1
# [2] = test system: kynurenine production in HeLa cells; experiment: Inhibition of kynurenine production in HeLa cells; assay type: cell-based, human; details: 48 h, HeLa cells, human IFN-γ 50 ng/mL, kynurenine read at 480 nm, read-out: IC50
# [3] = test system: kynurenine production in SKOV-3 cells; experiment: Inhibition of kynurenine production in SKOV-3 cells; assay type: cell-based, human
# Procedure: The effect of compounds described herein on the inhibition of kynurenine production in HeLa cells (derived from human cervical cancer) was determined. HeLa cells were seeded into a 96-well culture plate at a density of 5×10^3 per well in RPMI1640/phenol red free media (from GIBCO) with 2 mM L-glutamine and 10% fetal bovine serum (FBS, from GIBCO) and grown overnight in a 37° C. incubator with 5% CO2. Twenty-four hours later, human IFN-γ (from GIBCO) (final concentration 50 ng/mL) and test compound solutions (serially diluted to different wells) were added to each well with a final volume of 200 uL per well. Forty-eight hours after incubation with compounds, 140 uL supernatant was taken from each well and was transferred to a new 96-well plate. Ten microliters of 6.1 N trichloroacetic acid were added into each well, mixed and incubated at 50° C. for 30 minutes. […] The yellow color derived from kynurenine was measured at 480 nm using a SPECTRAmax i3 reader. Each compound concentration was done in triplicates and compound IC50 value was calculated using nonlinear regression using Graphpad Prism 5.0.
# The effect of compounds described herein on the inhibition of kynurenine production in SKOV-3 cells (derived from human ovarian cancer) was determined using a similar experimental procedure as described in Example A. Exemplary results are shown in FIG. 1. […]
# [4] = test system: LPS-induced plasma kynurenine; experiment: Inhibition of LPS induced plasma kynurenine in mice; assay type: in vivo; details: Balb/c mouse, 5 mg/kg LPS i.p. plus oral 30 mpk
# Procedure: The effect of compounds described herein on the inhibition of lipopolysaccharide (LPS)-induced plasma kynurenine in mouse was determined. Female Balb/c mouse (˜20 g, obtained from Vital River Laboratory Animal Co. LTD) was treated with either vehicle control (saline) or 5 mg/kg LPS via intraperitoneal injection, followed by an oral dose of 30 mpk compound 9 within 5 minutes of LPS injection. Blood samples (500 uL) were collected into K2EDTA tube via retro-orbital puncture at 12 and 24 hrs (terminal bleeding) after treatment with LPS or LPS plus compound 9. For vehicle control group, plasma samples were collected at 24 hour post dose. Blood samples were put on ice after collection and centrifuged at 4° C. (2000 g, 5 minutes) immediately after collection to obtain the plasma. Plasma kynurenine level was determined by LC-MS/MS analysis. Each group contains 3 mice and mean plasma kynurenine level was plotted in FIG. 2.
# [5] = test system: T cells and HeLa cells co-culture; experiment: T cells and HeLa cells co-culture assay (IFN-gamma production); assay type: cell-based, human; details: CD3 T cells + HeLa cells, 72 hr, FIG. 4, read-out: EC50, production of IFN-gamma in the T cells and HeLa cells co-culture media
# Procedure: HeLa cells were seeded into 96-well plate (5000 cells per well in 100 μL of cell growth media DMEM with 10% FBS and 1% pen/strep) and incubated at 37° C. with 5% CO2. After overnight incubation, 200 μL of INF-gamma (50 ng/ml in growth media) was added to the plate and returned to incubator for another 48 hr. SepMater™-50 centrifuge tube was used to isolate PBMC from human donor according to manufacture's instruction (Stemcell). The CD3 T cell was then isolated from the PBMC using EasySep Human T cell isolation kit (Stemcell). Wash the 96-well plat twice with 200 μL of co-culture media (RPMI-1640+10% FBS+1% Pen/strep). Adjust the CD3 T cells density to 5×10^5 cells/ml with high dose anti-CD3/CD28 beads and co-culture medium (RPMI-1640+10% FBS+1% Pen/strep) and seed 200 μL/well into 96-well plate. Compound at different concentration was added to each well and the plate was incubated for a further 72 hr. Level of INF-gamma in the co-culture media (100 μL) was analyzed using the Human IFN-gamma ELISA Ready-SET-GO kit from eBioscience.
CLint scaled at 1 µM [1] [mL/min/kg],hepatocyte CLint at 1 µM [1] [µL/min/1e6 cells],half-life at 1 µM [1] [h],Human Hepatocyte Remaining Percentage @ 120 min (pooled human hepatocytes; pooled human hepatocytes),"IC50 ([2]; Homo sapiens, HeLa) [nM]","IC50 ([3]; Homo sapiens, SK-OV-3, FIG. 1) [nM]",EC50 ([5]; Homo sapiens) [nM],Human In vitro Clint (μL/min/10^6 cells) (pooled human hepatocytes; pooled human hepatocytes),Human In vitro T1/2 (pooled human hepatocytes; pooled human hepatocytes) [h],"Human Scale-up Clint (pooled human hepatocytes; scaled up from in vitro t1/2, scaling factor 2544.3) [mL/min/kg]",EC50 [5] [nM],IC50 [2] [nM],IC50 ([3]; FIG. 1) [nM],SMILES,drop of plasma kynurenine compared to the LPS treatment alone ([4]; 12 hour time point) [%],drop of plasma kynurenine compared to the LPS treatment alone ([4]; 24 hour time point) [%]
10,3,7.05,79,2.2,7.4,,,,,,,,"CC(C)CN(CC(C)C)c1ccc(C2(C(=O)O)CCCC2)cc1NC(=O)Nc1ccc(F)cc1F [Compound 9, 1-[4-[bis(2-methylpropyl)amino]-3-[[(2,4-difluorophenyl)carbamoyl]amino]phenyl]cyclopentane-1-carboxylic acid]",72,85
,,,35,,,,19,1.22,48,41,6.9,10.2,"NS(=O)(=O)NCCNc1nonc1/C(=N/O)Nc1ccc(F)c(Br)c1 [INCB-24360, reference compound]",,
13,5.2,4.47,75,0.3,,,,,,,,,CC(C)CN(c1ccc(C2(C(=O)O)CCC2)cc1Nc1ccc(C#N)cn1)C1CCOCC1 [Compound 86],,

# More lines, now with the values behind:
SMILES,CLint scaled at 1 µM [1] [mL/min/kg],hepatocyte CLint at 1 µM [1] [µL/min/1e6 cells],half-life at 1 µM [1] [h],Human Hepatocyte Remaining Percentage @ 120 min (pooled human hepatocytes; pooled human hepatocytes),"IC50 ([2]; Homo sapiens, HeLa) [nM]","IC50 ([3]; Homo sapiens, SK-OV-3, FIG. 1) [nM]",EC50 ([5]; Homo sapiens) [nM],Human In vitro Clint (μL/min/10^6 cells) (pooled human hepatocytes; pooled human hepatocytes),Human In vitro T1/2 (pooled human hepatocytes; pooled human hepatocytes) [h],"Human Scale-up Clint (pooled human hepatocytes; scaled up from in vitro t1/2, scaling factor 2544.3) [mL/min/kg]",EC50 [5] [nM],IC50 [2] [nM],IC50 ([3]; FIG. 1) [nM],drop of plasma kynurenine compared to the LPS treatment alone ([4]; 12 hour time point) [%],drop of plasma kynurenine compared to the LPS treatment alone ([4]; 24 hour time point) [%]
CCN(c1ncc(C2(C(=O)O)CCC2)cc1Nc1ccc(Cl)cc1)C1CCOCC1 [Compound 120],3.5,1.4,17.1,94,0.1,,9.1,,,,,,,,
CC(C)N(CC1CC1)c1ncc(C2(C(=O)O)CCC2)cc1Nc1ccc(C#N)cn1 [Compound 110],16,6.4,3.6,71,1,,,,,,,,,,
CC(C)CN(CC(C)C)c1ncc(C2(C(=O)O)CCC2)cc1Nc1ccc(Cl)cc1 [Compound 84],5.7,2.2,10.4,80,0.4,,,,,,,,,,
CC(C)CN(CC(C)C)c1ccc(C2(C(=O)O)CCCC2)cc1Nc1ccccc1 [Compound 48],2,0.8,28.9,105,8.4,,,,,,,,,,
